Laboratory results from PubChem BioAssay (NCI).
Values joined by “and” are separate entries in the source; they are usually repeats but may differ in a detail not shown here. Identical values can stand only once.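 Following 48 hours of exposure in 96-well plates, responses at five concentrations were used to interpolate endpoints linearly. At the GI50, growth is halved. TGI: total growth inhibition.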 *1 amine or outer side, *2 acyl side, *3 side chain or, on linkers, in order; H or OH if unused. Where a SMILES comes first, the peptide text is derived from it. Bridges are numbered along the chain shown (N, C = ends). Roman numbers before positions name the chains, in order. [ ]: non-standard residue; d: D form. Actinocin(9to1) = Cc1c2oc3c(C)ccc(C(=O)[*:1])c3nc-2c(C(=O)[*:2])c(N)c1=O; NMeT = CN[CH](C(=O)O)[CH](C)O; Sar = CNCC(=O)O

Key:
Test in all cases: NCI tumour cell line growth inhibition, 48 h
NCI-H522 lung = test system: NCI-H522 lung
NCI-H23 lung = test system: NCI-H23 lung
UACC-62 melanoma = test system: UACC-62 melanoma
SK-OV-3 ovarian = test system: SK-OV-3 ovarian
NCI-H226 lung = test system: NCI-H226 lung
SF-268 CNS = test system: SF-268 CNS
HCC-2998 colon = test system: HCC-2998 colon
MDA-MB-435 = test system: MDA-MB-435
MDA-MB-231 breast = test system: MDA-MB-231 breast
EKVX NSCLC = test system: EKVX NSCLC

Row | SMILES | GI50 (NCI-H522 lung) | TGI (NCI-H522 lung) | GI50 (NCI-H23 lung) | TGI (NCI-H23 lung) | GI50 (UACC-62 melanoma) | TGI (UACC-62 melanoma) | GI50 (SK-OV-3 ovarian) | TGI (SK-OV-3 ovarian) | GI50 (NCI-H226 lung) | TGI (NCI-H226 lung) | GI50 (SF-268 CNS) | TGI (SF-268 CNS) | GI50 (HCC-2998 colon) | TGI (HCC-2998 colon) | GI50 (MDA-MB-435) | TGI (MDA-MB-435) | GI50 (MDA-MB-231 breast) | TGI (MDA-MB-231 breast) | GI50 (EKVX NSCLC) | TGI (EKVX NSCLC)
1 | C[C@@H](O)[C@H](NC(=O)N[C@@H](CC(N)=O)c1nc([C@@H](N)CO)no1)C(=O)O | > 100 µM | > 100 µM | > 100 µM | > 100 µM | > 100 µM | > 100 µM | > 100 µM | > 100 µM | > 100 µM | > 100 µM | > 100 µM | > 100 µM | > 100 µM | > 100 µM | > 100 µM | > 100 µM | > 100 µM | > 100 µM | > 100 µM | > 100 µM
2 | C=C1C(=O)O[C@H]2[C@H]1CC/C(COC(=O)c1cc3ccccc3o1)=C\CC[C@@]1(C)O[C@@H]21 | 0.68 µM | 2.39 µM | 1.98 µM | 4.75 µM | 1.68 µM | 3.23 µM | 16.7 µM | 32.7 µM | 1.74 µM | 3.6 µM | 1.56 µM | 3.27 µM | 2.47 µM | 5.84 µM | 1.43 µM | 2.9 µM | 1.64 µM | 3.55 µM | 2.02 µM | 6.12 µM
3 | Nc1c2c(c(O)c3c1=C(CO)C=N3)=NCCS2 | 0.191 µM | 0.43 µM | 0.0971 µM | 0.352 µM | 0.156 µM | 0.33 µM | 0.346 µM | 1.2 µM | 0.199 µM | 0.471 µM | 0.291 µM | 1.05 µM | 0.169 µM | 0.329 µM | 0.0521 µM | 0.169 µM | 0.296 µM | 0.834 µM | 0.311 µM | 1.2 µM
4 | C=C1C(=O)OC2C1CCC(C)C1C=CC(=O)C12C (stereo unspecified) |  | 2.39 µM |  | 10.2 µM |  | 4.11 µM |  | 98.8 µM |  | 13 µM |  | 39.5 µM |  | 26.6 µM |  | 3.34 µM |  | 4.83 µM |  | 25.2 µM
5 | Cc1c2oc3c(C)ccc(C(=O)NC4C(=O)NC(C(C)C)C(=O)N5CCCC5C(=O)N(C)CC(=O)N(C)C(C(C)O)C(=O)OC4C)c3nc-2c(C(=O)NC2C(=O)NC(C(C)C)C(=O)N3CCCC3C(=O)N(C)CC(=O)N(C)C(C(C)O)C(=O)OC2C)c(N)c1=O (stereo unspecified) (I: TVP[Sar][NMeT] / II: TVP[Sar][NMeT]; ester I:1-I:C, II:1-II:C; linker I:N-II:N via Actinocin(9to1); configuration not given here) |  | 1.53 µM and > 1 µM |  | 18.3 µM and > 1 µM |  | 1.54 µM | 5.75 µM and > 1 µM | > 100 µM | 1.47 µM and 0.618 µM | 26.8 µM and > 1 µM |  | > 63 µM | 3.64 µM and > 1 µM | > 29.3 µM | 2.11 µM and > 1 µM | 21 µM and > 1 µM | 3.53 µM and > 1 µM | > 69.9 µM | 2.56 µM and > 1 µM | 25 µM and > 1 µM
6 | CNC/C(Cl)=N/S(=O)(=O)c1ccc(C)cc1 |  | 24.9 µM |  | 26.2 µM |  | 21.9 µM |  | 56.6 µM |  | 59.5 µM |  | > 100 µM |  | 16.2 µM |  | 21.5 µM |  | 28.5 µM |  | 40.4 µM
7 | COc1ccc(NC([Se])=NC23CC4CC(CC(C4)C2)C3)cc1 | 1.23 µM | 4.35 µM | 0.456 µM | 3 µM | 1.43 µM | 4.96 µM | 2.45 µM | 7.43 µM | 1.25 µM | 5.26 µM | 3.55 µM | > 100 µM | 2.86 µM | 8.5 µM | 2.84 µM | 19.5 µM | 1.79 µM | 3.91 µM | 1.97 µM | 4.74 µM
8 | Cc1cc(O)cc2c1[C@]1(C)CCC3C(C)(C)CCC[C@]3(C)[C@H]1C2 (stereo partly specified) | 20.8 µM | 38.9 µM | 22.5 µM | 42 µM | 18.6 µM | 33.2 µM | 21.9 µM | 38.6 µM | 22.4 µM | 41.4 µM | 21 µM | 39.4 µM | 22.1 µM | 38 µM | 18.8 µM | 33.4 µM | 22 µM | 38.5 µM | 19.9 µM | 36.6 µM
9 | C=C(NC(=O)C(=C)NC(=O)c1csc(C2=NC3c4csc(n4)C4NC(=O)c5csc(n5)C(C(C)(O)C(C)O)NC(=O)C5CSC(=N5)C(=CC)NC(=O)C(C(C)O)NC(=O)c5csc(n5)C3(CC2)NC(=O)C(C)NC(=O)C(=C)NC(=O)C(C)NC(=O)C(C(C)CC)NC2C=Cc3c(C(C)O)cc(nc3C2O)C(=O)OC4C)n1)C(N)=O (stereo unspecified) | 2.07 µM | 4.76 µM | 13.7 µM | > 100 µM | 4.34 µM | 32.6 µM | 54 µM | > 100 µM | 2.18 µM | 7.71 µM | 19.6 µM | > 100 µM | 28.8 µM | > 100 µM | 3.96 µM | > 100 µM | 6.46 µM | > 100 µM | 32.5 µM | > 100 µM
10 | O=c1cc(N2CCN(CCCCCOc3cc(O)c4c(=O)cc(-c5ccccc5)oc4c3)CC2)c2ccccc2o1 | > 100 µM | > 100 µM | 0.218 µM | 0.475 µM | 36.2 µM | > 100 µM | > 100 µM | > 100 µM | 23.9 µM | > 100 µM | > 100 µM | > 100 µM | 48.3 µM | > 100 µM | 47.2 µM | > 100 µM | 13.1 µM | > 100 µM | > 100 µM | > 100 µM
11 | C[C@]12CC[C@@H]3c4cc(-c5ccc(F)cc5)c(O)cc4CC[C@H]3[C@@H]1CC[C@@H]2O | 3.79 µM | 16.7 µM | 13.8 µM | 37.8 µM | 12 µM | 25.2 µM | 13.3 µM | 28.2 µM | 10.3 µM | 30.4 µM | 7.29 µM | 27.8 µM | 16.8 µM | 38.2 µM | 11.8 µM | 28.6 µM | 7.86 µM | 23.9 µM | 6.32 µM | 20.3 µM
